Measurements published in US20230227466A1, “SUBSTITUTED THIENOPYRIMIDINES THAT INTERACT WITH THE RAS SUPERFAMILY FOR THE TREATMENT OF CANCERS, INFLAMMATORY DISEASES, RASOPATHIES, AND FIBROTIC DISEASE” (SHY Therapeutics, LLC, priority 2020, published 2023).
Read-outs that look alike come from different tables or passages of the source.

Tests used:
Assay in all cases: Ras GTP binding domain inhibition assay (labeled-GTP competition, cell-free)
Rho-A = Rho-A (Homo sapiens, UniProt P61586); set-up: made in house
From the text: (§1) This is a competitive binding assay. It involves the immobilization of a protein on solid phase, interaction with a small molecule drug candidate, and then competitive binding with a labeled native GTP or GDP ligand.
(§2) In theory, the assay is suitable for use with any GTP or GDP binding protein.
(§3) The following method was developed as specific assay for the following proteins: KRas wild type, KRas Q61H mutant, KRas G12C mutant, KRas G12D mutant, Rac-1, and Rho-A.
(§4) The small GTPases proteins: KRas wild type. KRas Q61H mutant, KRas G12C mutant, KRas G12D mutants, Rac-1, and Rho-A were expressed as His-tagged proteins. In addition, the Guanosine nucleotide Exchange Factor (GEF) Sos protein (residues 556-1049) was expressed as a His-tagged protein. In cells, the guanine nucleotide exchange factor Sos protein promotes activation of Ras proteins by stimulating an exchange of GDP for GTP. The inclusion of Sos to the Ras GTP binding domain inhibition assay may be considered as an alternative representation of physiological cellular conditions for evaluating the inhibitory activity of some of the tested small molecules.
(§5) For the assay, all purified small GTPases proteins were diluted in Buffer-I or Buffer-II to a final concentration of 10-30 μg/mL. 200 μL of each diluted protein was added to a nickel-coated 96-well plate and incubated overnight at 4° C. Then the protein solution was discarded and 200 μL of Buffer-I or Buffer-II was added to each well in the presence of 1% DMSO. Compounds to be tested were added to the protein-coated wells at final concentration of 20 μM, and incubated for 3 hours at room temperature with and without 10-30 μg/mL of Sos added to the final hour of the incubation. When performing IC50 measurements a serial dilution of all tested concentrations was added. Then Cy3-GTP or Cy5-GTP was added to each well to a final concentration of 100 nM. The labeled GTP was incubated for 45 minutes at room temperature. Following GTP incubation, wells were washed 3× in Buffer-I or Buffer-II and 200 μL of Buffer-I or Buffer-II was added to each well. Following washes, the amount of bound labeled-GTP was measured using a SpectraMax M3 (Molecular Devices).

Rac-1 = Rac-1 (Homo sapiens, UniProt P63000); set-up: made in house
From the text: as §1, §2, §3, §4, §5

KRas wild type = KRas wild type (Homo sapiens, UniProt P01116); set-up: made in house
From the text: as §1, §2, §3, §4, §5

KRas Q61H mutant = target: T1, KRas Q61H mutant (Homo sapiens, UniProt P01116, Q61H)
T1 construct: made in house
From the text: as §1, §2, §3, §4, §5

KRas G12D mutant = target: T2, KRas G12D mutant (Homo sapiens, UniProt P01116, G12D)
T2 construct: made in house
From the text: as §1, §2, §3, §4, §5

KRas G12C mutant = target: T3, KRas G12C mutant (Homo sapiens, UniProt P01116, G12C)
T3 construct: made in house
From the text: as §1, §2, §3, §4, §5

[1] = with SOS, read-out: Rho-A + SOS: % inh.
[2] = without SOS, read-out: Rho-A: % inh.
[3] = with SOS, read-out: Rac-1 + SOS: % inh.
[4] = without SOS, read-out: Rac-1: % inh.
[5] = with SOS, read-out: KRas wild type + SOS: % inh.
[6] = without SOS, read-out: KRas wild type: % inh.
[7] = with SOS, read-out: KRas Q61H mutant + SOS: % inh.
[8] = without SOS, read-out: KRas Q61H mutant: % inh.
[9] = with SOS, read-out: KRas G12D mutant + SOS: % inh.
[10] = without SOS, read-out: KRas G12D mutant: % inh.
[11] = with SOS, read-out: KRas G12C mutant + SOS: % inh.
[12] = without SOS, read-out: KRas G12C mutant: % inh.

| Compound | inhibition at 20 µM (Rho-A; [1]) [%] | inhibition at 20 µM (Rho-A; [2]) [%] | inhibition at 20 µM (Rac-1; [3]) [%] | inhibition at 20 µM (Rac-1; [4]) [%] | inhibition at 20 µM (KRas wild type; [5]) [%] | inhibition at 20 µM (KRas wild type; [6]) [%] | inhibition at 20 µM (KRas Q61H mutant; [7]) [%] | inhibition at 20 µM (KRas Q61H mutant; [8]) [%] | IC50 (KRas Q61H mutant; with SOS) [µM] | inhibition at 20 µM (KRas G12D mutant; [9]) [%] | inhibition at 20 µM (KRas G12D mutant; [10]) [%] | inhibition at 20 µM (KRas G12C mutant; [11]) [%] | inhibition at 20 µM (KRas G12C mutant; [12]) [%] |
| --- | --- | --- | --- | --- | --- | --- | --- | --- | --- | --- | --- | --- | --- |
| COCCn1ccnc1-c1nc(N[C@@H]2CC[C@H](OC)C2)c2c(-c3ccccc3)c(-c3ccn(C)n3)sc2n1 (racemic) [Compound 6, Rac-N-((1R,3S)-3-methoxycyclopentyl)-2-(1-(2-methoxyethyl)-1H-imidazol-2-yl)-6-(1-methyl-1H-pyrazol-3-yl)-5-phenylthieno[2,3-d]pyrimidin-4-amine] | 76 to 100 | 76 to 100 | 76 to 100 | 76 to 100 | 76 to 100 | 76 to 100 | 76 to 100 | 76 to 100 | 1 to 4.99 | 76 to 100 | 76 to 100 | 76 to 100 | 76 to 100 |
| COCCn1ccnc1-c1nc(N[C@@H]2CC[C@H](OC)C2)c2ccsc2n1 (racemic) [Compound 8, Rac-N-((1R,3S)-3-methoxycyclopentyl)-2-(1-(2-methoxyethyl)-1H-imidazol-2-yl)thieno[2,3-d]pyrimidin-4-amine] | 76 to 100 | 76 to 100 | 76 to 100 | 76 to 100 | 76 to 100 | 76 to 100 | 76 to 100 | 76 to 100 | 1 to 4.99 | 76 to 100 | 76 to 100 | 76 to 100 | 76 to 100 |
| CO[C@H]1CC[C@@H](Nc2nc(-c3nccn3C)nc3sccc23)C1 (racemic) [Compound 10, Rac-N-((1R,3S)-3-methoxycyclopentyl)-2-(1-methyl-1H-imidazol-2-yl)thieno[2,3-d]pyrimidin-4-amine] | 76 to 100 | 76 to 100 | 76 to 100 | 76 to 100 | 76 to 100 | 51 to 75 | 76 to 100 | 51 to 75 | 5 to 10 | 51 to 75 | 51 to 75 | 76 to 100 | 76 to 100 |
| CO[C@H]1CC[C@@H](Nc2nc(C(N)=O)nc3sccc23)C1 (racemic) [Compound 11, Rac-4-(((1R,3S)-3-methoxycyclopentyl)amino)thieno[2,3-d]pyrimidine-2-carboxamide] | 1 to 25 | 1 to 25 | 0 | 0 | 1 to 25 | 0 | 0 | 0 | > 10 | 0 | 1 to 25 | 1 to 25 | 1 to 25 |
| CO[C@H]1CC[C@@H](Nc2nc(C(=O)N3CCOCC3)nc3sccc23)C1 (racemic) [Compound 12, Rac-(4-(((1R,3S)-3-methoxycyclopentyl)amino)thieno[2,3-d]pyrimidin-2-yl)(morpholino)methanone] | 1 to 25 | 1 to 25 | 1 to 25 | 0 | 1 to 25 | 0 | 0 | 1 to 25 | > 10 | 0 | 1 to 25 | 1 to 25 | 1 to 25 |
| CO[C@H]1CC[C@@H](Nc2nc(-c3nccn3C)nc3sc(-c4ccn(C(C)C)n4)c(C(F)(F)F)c23)C1 (racemic) [Compound 73, Rac-6-(1-isopropyl-1H-pyrazol-3-yl)-N-((1R,3S)-3-methoxycyclopentyl)-2-(1-methyl-1H-imidazol-2-yl)-5-(trifluoromethyl)thieno[2,3-d]pyrimidin-4-amine] |  | 51 to 75 |  | 1 to 25 | 76 to 100 | 1 to 25 | 51 to 75 | 51 to 75 |  |  |  | 76 to 100 | 1 to 25 |
| COCC1CCN(c2nc(-c3nccn3C)nc3sc(-c4ccn(C(C)C)n4)c(C(F)(F)F)c23)C1 (racemic) [Compound 74, Rac-6-(1-Isopropyl-1H-pyrazol-3-yl)-4-(3-(methoxymethyl)pyrrolidin-1-yl)-2-(1-methyl-1H-imidazol-2-yl)-5-(trifluoromethyl)thieno[2,3-d]pyrimidine] |  | 51 to 75 |  | 1 to 25 | 76 to 100 | 26 to 50 | 51 to 75 | 51 to 75 |  |  |  | 51 to 75 | 1 to 25 |
| COC1CCCN(c2nc(-c3nccn3C)nc3sc(-c4ccn(C(C)C)n4)c(C(F)(F)F)c23)C1 (racemic) [Compound 75, Rac-6-(1-Isopropyl-1H-pyrazol-3-yl)-4-(3-methoxypiperidin-1-yl)-2-(1-methyl-1H-imidazol-2-yl)-5-(trifluoromethyl)thieno[2,3-d]pyrimidine] |  | 51 to 75 |  | 1 to 25 | 51 to 75 | 26 to 50 | 26 to 50 | 51 to 75 |  |  |  | 51 to 75 | 26 to 50 |

Next, values leading:

| inhibition at 20 µM (Rho-A; [1]) [%] | inhibition at 20 µM (Rho-A; [2]) [%] | inhibition at 20 µM (Rac-1; [3]) [%] | inhibition at 20 µM (Rac-1; [4]) [%] | inhibition at 20 µM (KRas wild type; [5]) [%] | inhibition at 20 µM (KRas wild type; [6]) [%] | inhibition at 20 µM (KRas Q61H mutant; [7]) [%] | inhibition at 20 µM (KRas Q61H mutant; [8]) [%] | IC50 (KRas Q61H mutant; with SOS) [µM] | inhibition at 20 µM (KRas G12D mutant; [9]) [%] | inhibition at 20 µM (KRas G12D mutant; [10]) [%] | inhibition at 20 µM (KRas G12C mutant; [11]) [%] | inhibition at 20 µM (KRas G12C mutant; [12]) [%] | Compound |
| --- | --- | --- | --- | --- | --- | --- | --- | --- | --- | --- | --- | --- | --- |
|  | 51 to 75 |  | 26 to 50 | 76 to 100 | 76 to 100 | 76 to 100 | 76 to 100 |  |  |  | 76 to 100 | 51 to 75 | CO[C@@H]1CC[C@H]1CNc1nc(-c2nccn2C)nc2sc(-c3ccn(C(C)C)n3)c(C)c12 (racemic) [Compound 61, rac-6-(1-Isopropyl-1H-pyrazol-3-yl)-N-(((1S,2R)-2-methoxycyclobutyl)methyl)-5-methyl-2-(1-methyl-1H-imidazol-2-yl)thieno[2,3-d]pyrimidin-4-amine] |
|  | 51 to 75 |  | 51 to 75 | 76 to 100 | 26 to 50 | 76 to 100 | 51 to 75 |  |  |  | 76 to 100 | 51 to 75 | Cc1c(-c2ccn(C(C)C)n2)sc2nc(-c3nccn3C)nc(NCc3c[nH]cn3)c12 [Compound 59, N-((1H-Imidazol-4-yl)methyl)-6-(1-isopropyl-1H-pyrazol-3-yl)-5-methyl-2-(1-methyl-1H-imidazol-2-yl)thieno[2,3-d]pyrimidin-4-amine] |
|  | 76 to 100 |  | 51 to 75 | 51 to 75 | 51 to 75 | 51 to 75 | 51 to 75 |  |  |  | 51 to 75 | 26 to 50 | Cc1c(-c2ccn(C(C)C)n2)sc2nc(-c3nccn3C)nc(NCc3n[nH]c(=O)n3C)c12 [Compound 60, 5-(((6-(1-Isopropyl-1H-pyrazol-3-yl)-5-methyl-2-(1-methyl-1H-imidazol-2-yl)thieno[2,3-d]pyrimidin-4-yl)amino)methyl)-4-methyl-2,4-dihydro-3H-1,2,4-triazol-3-one] |
|  | 26 to 50 |  | 26 to 50 | 76 to 100 | 0 | 76 to 100 | 26 to 50 |  |  |  | 76 to 100 | 26 to 50 | COc1cccc(Nc2nc(-c3nccn3C)nc3sc(-c4ccn(C(C)C)n4)c(C)c23)c1 [Compound 64, 6-(1-Isopropyl-1H-pyrazol-3-yl)-N-(3-methoxyphenyl)-5-methyl-2-(1-methyl-1H-imidazol-2-yl)thieno[2,3-d]pyrimidin-4-amine] |
